“Also recorded” adds a separate entry of the source.

One may read the IC50 as the concentration that gives 50% inhibition.

Experiment [1] deals with rat anterior pituitary cells. The class given is cell-based. The following applies: vs 1 nM GRF(1-29)NH2; read-out: IC50 (antagonist of GRF-stimulated GH secretion). The procedure: (§1) Phase 7—Inhibition of Growth Hormone Release
(§2) Anterior pituitaries from adult male rats, weighing 200-250 g and housed under controlled conditions (lights on from 0500-1900 h), were dispersed using aseptic technique by a previously described trypsin/DNase method (Heiman et al., Endocrinology, 1985, 116, 410) derived from other methods (Hoefer et al., Mol. Cell. Endocrinol., 1984, 35, 229).
(§3) The dispersed cells were diluted with sterile-filtered Dulbecco's modified Eagle medium (MEM) (Gibco Laboratories, Grand Island, N.Y. (GIBCO)), which was supplemented with fetal calf serum (2.5%; GIBCO), horse serum (3%; GIBCO), fresh rat serum (10% stored on ice for no longer than 1 h) from the pituitary donors, MEM nonessential amino acids (1%; GIBCO), gentamycin (10/mg/mL; Sigma) and nystatin (10,000 U/mL; GIBCO). The cells were counted with a hemacytometer (approximately 2,000,000 cells per pituitary) and randomly plated at a density of 200,000 per well (Co-star cluster 24; Rochester Scientific Co., Rochester, N.Y.). […]
(§4) Growth hormone (GH) in plasma and media was measured by a standard double antibody radioimmunoassay using components supplied by the NIDDK and the National Hormone and Pituitary Program, University of Maryland School of Medicine. […] Potencies and 95% confidence intervals were calculateds by 4-point assay (Pugsley, Endocrinology, 1946, 39, 161). […]

The subject of experiment [2] is rat anterior pituitary cells. The experiment in a line: Growth hormone release from primary culture of rat anterior pituitary cells (agonist potency). Type of experiment: cell-based. How it is done: as §1, §2, §3, §4
In experiment [3] the target is bombesin receptor of rat pancreatic acini cells (rat) (UniProt P52500).
Experiment [4] has the same target. The experiment in a line: displacement of 125I-labeled bombesin from rat pancreatic acini cells. In general terms: Displacement assays read how much labelled ligand stays bound in the presence of the test substance.
The target in experiment [5] is adenylate cyclase activity in rat anterior pituitary homogenates. To be noted: Robberecht et al.; cited from earlier work.

For the compound `CC[C@H](C)[C@H](NC(=O)[C@H](C)NC(=O)[C@H](CC(=O)O)NC(=O)[C@H](C)NC(=O)[C@@H](N)Cc1ccc(O)cc1)C(=O)N[C@@H](Cc1ccccc1)C(=O)N[C@H](C(=O)N[C@@H](CC(N)=O)C(=O)N[C@@H](CO)CN[C@@H](Cc1ccc(O)cc1)C(=O)N[C@@H](CCCNC(=N)N)C(=O)N[C@@H](CCCCN)C(=O)N[C@H](C(=O)N[C@@H](CC(C)C)C(=O)NCC(=O)N[C@@H](CCC(N)=O)C(=O)N[C@@H](CC(C)C)C(=O)N[C@@H](CO)C(=O)N[C@@H](C)C(=O)N[C@@H](CCCNC(=N)N)C(=O)N[C@@H](CCCCN)C(=O)N[C@@H](CC(C)C)C(=O)N[C@@H](CC(C)C)C(=O)N[C@@H](CCC(N)=O)C(=O)N[C@@H](CC(=O)O)C(=O)N[C@H](C(=O)N[C@@H](CCSC)C(=O)N[C@@H](CO)C(=O)N[C@@H](CCCNC(=N)N)C(N)=O)[C@@H](C)CC)C(C)C)[C@@H](C)O` [VIII, [Ser^9ψ[CH2NH]Tyr^10]-GRF(1-29)NH2], in experiment [1], the IC50 was roughly 10 µM. In addition, the “agonist activity in the potency assay (in words)” value in experiment [2] (doses as high as 0.1 mM) is “inactive; also recorded: all trace of agonist activity was lost”.

As for GRF(1-29)NH2 [reference compound], in experiment [2] (GH release, relative to GRF(1-29)NH2 = 100, 4-point assay), the “Potency (%)” value is recorded as 100%.

The compound “The analogues (D-Phe-Gln-Trp-Ala-Val-N-methyl-D-Ala-His-Leu-methylester and D-F5-Phe-Gln-Trp-Ala-Val-D-Ala-His-Leu-methylester)” returned an inhibition of amylase release produced by bombesin, half-maximal effective dose in experiment [3] of 5 to 10 nM. Also, in experiment [4], the half-maximal effective dose lay in the range of 5 to 10 nM.

As for [N-Ac-Tyr^1, D-Arg^2]GRF(1-29)NH2, in experiment [5], the half-inhibitory concentration (IC50) is roughly 1 µM.

(Values after patent US20050026827A1, “Octapeptide bombesin analogs” (Societe de Conseils de Recherches et d'Applications …, priority 1987, published 2005).)
